Experiments:
human PPARalpha = biological target: T1, human PPARalpha (Homo sapiens, UniProt Q07869); experiment: Cellular PPARalpha assay (stably transfected HEK luciferase reporter cell line); type: cell-based; settings: PPARalpha reporter cell line (HEK, GR-GAL4-humanPPARalpha-LBD), 24 h incubation
T1 construct: human PPARalpha receptor (amino acids S167-Y468); expressed in transfected cells; host or cells: HEK cells, stably transfected (pcDNA3 construct)
T1 sequence (Q07869 167-468): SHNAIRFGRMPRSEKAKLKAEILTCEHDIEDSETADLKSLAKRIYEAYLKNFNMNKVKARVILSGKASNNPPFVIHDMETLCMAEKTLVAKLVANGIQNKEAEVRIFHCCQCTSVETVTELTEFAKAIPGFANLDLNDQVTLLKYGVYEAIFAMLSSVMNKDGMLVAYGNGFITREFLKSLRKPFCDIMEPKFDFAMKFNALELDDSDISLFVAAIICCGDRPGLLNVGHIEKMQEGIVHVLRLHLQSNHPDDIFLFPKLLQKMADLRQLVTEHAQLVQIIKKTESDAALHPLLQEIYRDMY
Protocol: Determination of EC50 Values of PPAR Agonists in the Cellular PPARalpha Assay
The potency of substances which bind to human PPARalpha and activate it in an agonistic manner is analyzed using a stably transfected HEK cell line (HEK=human embryo kidney) which is referred to here as PPARalpha reporter cell line. It contains two genetic elements, a luciferase reporter element (pdeltaM-GAL4-Luc-Zeo) and a PPARalpha fusion protein (GR-GAL4-humanPPARalpha-LBD) which mediates expression of the luciferase reporter element depending on a PPARalpha ligand. The stably and constitutively expressed fusion protein GR-GAL4-humanPPARalpha-LBD binds in the cell nucleus of the PPARalpha reporter cell line via the GAL4 protein portion to the GAL4 DNA binding motifs 5′-upstream of the luciferase reporter element which is stably integrated in the genome of the cell line. There is only little expression of the luciferase reporter gene without addition of a PPARalpha ligand if fatty acid-depleted fetal calf serum (cs-FCS) is used in the assay. PPARalpha ligands bind and activate the PPARalpha fusion protein and thereby bring about expression of the luciferase reporter gene. The luciferase which is formed can be detected by means of chemiluminescence via an appropriate substrate.
Construction of the Cell Line
The PPARalpha reporter cell line was prepared in two steps. Firstly, the luciferase reporter element was constructed and stably transfected into HEK cells. For this purpose, five binding sites of the yeast transcription factor GAL4 (in each case 5′-CGGAGTACTGTCCTCCGAG-3′) were cloned in 5′-upstream of a 68 bp-long minimal MMTV promoter (Genbank Accession # V01175). The minimal MMTV promoter section contains a CCAAT box and a TATA element in order to enable efficient transcription by RNA polymerase II. The cloning and sequencing of the GAL4-MMTV construct took place in analogy to the description of Sambrook J. et. al. (Molecular cloning, Cold Spring Harbor Laboratory Press, 1989). Then the complete Photinus pyralis luciferase gene (Genbank Accession # M15077) was cloned in 3′-downstream of the GAL4-MMTV element. After sequencing, the luciferase reporter element consisting of five GAL4 binding sites, MMTV promoter and luciferase gene was subcloned into a plasmid which confers zeozin resistance in order to obtain the plasmid pdeltaM-GAL4-Luc-Zeo. This vector was transfected into HEK cells in accordance with the statements in Ausubel, F. M. et al. (Current protocols in molecular biology, Vol. 1-3, John Wiley & Sons, Inc., 1995).
In a second step, the PPARalpha fusion protein (GR-GAL4-humanPPARalpha-LBD) was introduced into the stable cell clone described. For this purpose, initially the cDNA coding for the N-terminal 76 amino acids of the glucocorticoid receptor (Genbank Accession # P04150) was linked to the cDNA section coding for amino acids 1-147 of the yeast transcription factor GAL4 (Genbank Accession # P04386). The cDNA of the ligand-binding domain of the human PPARalpha receptor (amino acids S167-Y468; Genbank Accession # S74349) was cloned in at the 3′ end of this GR-GAL4 construct. The fusion construct prepared in this way (GR-GAL4-humanPPARalpha-LBD) was subcloned into the plasmid pcDNA3 (from Invitrogen) in order to enable constitutive expression therein by the cytomegalovirus promoter. This plasmid was linearized with a restriction endonuclease and stably transfected into the previously described cell clone containing the luciferase reporter element. The finished PPARalpha reporter cell line which contains a luciferase reporter element and constitutively expresses the PPARalpha fusion protein (GR-GAL4-humanPPARalpha-LBD) was isolated by selection with zeozin (0.5 mg/ml) and G418 (0.5 mg/ml).
The activity of PPARalpha agonists is determined in a 3-day assay which is described below: […]

human PPARgamma = biological target: T2, human PPARgamma (Homo sapiens, UniProt P37231); experiment: Cellular PPARgamma assay (transiently transfected HEK cells, luciferase reporter); type: cell-based; settings: HEK cells transiently transfected with GAL4-humanPPARgammaLBD, 48 h incubation
T2 construct: human PPARgamma receptor (amino acids 1152-Y475); expressed in transfected cells; host or cells: HEK cells, transiently transfected with pcDNA3-GAL4-humanPPARgammaLBD
T2 sequence (P37231 182-477 isoform P37231-2 limits assumed): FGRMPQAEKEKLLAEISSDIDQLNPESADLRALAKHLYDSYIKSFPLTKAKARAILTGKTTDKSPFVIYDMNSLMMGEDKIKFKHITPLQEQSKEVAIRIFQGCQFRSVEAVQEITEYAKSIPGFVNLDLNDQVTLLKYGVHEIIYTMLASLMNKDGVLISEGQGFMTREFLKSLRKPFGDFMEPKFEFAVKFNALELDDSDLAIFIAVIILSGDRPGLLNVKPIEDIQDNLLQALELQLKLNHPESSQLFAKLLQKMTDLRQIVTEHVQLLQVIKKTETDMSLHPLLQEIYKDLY
Text: Determination of EC50 Values of PPAR Agonists in the Cellular PPARgamma Assay
A transient transfection system is employed to determine the cellular PPARgamma activity of PPAR agonists. It is based on the use of a luciferase reporter plasmid (pGL3basic-5×GAL4-TK) and of a PPARgamma expression plasmid (pcDNA3-GAL4-humanPPARgammaLBD). Both plasmids are transiently transfected into human mbryonic kidney cells (HEK cells). There is then expression in these cells of the usion protein GAL4-humanPPARgammaLBD which binds to the GAL4 binding sites of he reporter plasmid. In the presence of a PPARgamma-active ligand, the activated usion protein GAL4-humanPPARgammaLBD induces expression of the luciferase reporter gene, which can be detected in the form of a chemiluminescence signal after addition of a luciferase substrate. As a difference from the stably transfected PPARalpha reporter cell line, in the cellular PPARgamma assay the two components (luciferase reporter plasmid and PPARgamma expression plasmid) are transiently transfected into HEK cells because stable and permanent expression of the PPARgamma fusion protein is cytotoxic.
Construction of the Plasmids
The luciferase reporter plasmid pGL3basic-5×GAL4-TK is based on the vector pGL3basic from Promega. The reporter plasmid is prepared by cloning five binding sites of the yeast transcription factor GAL4 (each binding site with the sequence 5′-CTCGGAGGACAGTACTCCG-3′), together with a 160 bp-long thymidine kinase promoter section (Genbank Accession # AF027128) 5′-upstream into pGL3basic. 3′-downstream of the thymidine kinase promoter is the complete luciferase gene from Photinus pyralis (Genbank Accession # M15077), which is already a constituent of the plasmid pGL3basic used. The cloning and sequencing of the reporter plasmid pGL3basic-5×GAL4-TK took place in analogy to the description in Sambrook J. et. al. (Molecular cloning, Cold Spring Harbor Laboratory Press, 1989).
The PPARgamma expression plasmid pcDNA3-GAL4-humanPPARgammaLBD was prepared by first cloning the cDNA coding for amino acids 1-147 of the yeast transcription factor GAL4 (Genbank Accession # P04386) into the plasmid pcDNA3 (from Invitrogen) 3′-downstream of the cytomegalovirus promoter. Subsequently, the cDNA of the ligand-binding domain (LBD) of the human PPARgamma receptor (amino acids 1152-Y475; Accession # g1480099) 3′-downstream of the GAL4 DNA binding domain was cloned. Cloning and sequencing of the PPARgamma expression plasmid pcDNA3-GAL4-humanPPARgammaLBD again took place in analogy to the description in Sambrook J. et. al. (Molecular cloning, Cold Spring Harbor Laboratory Press, 1989). Besides the luciferase reporter plasmid pGL3basic-5×GAL4-TK and the PPARgamma expression plasmid pcDNA3-GAL4-humanPPARgammaLBD, also used for the cellular PPARgamma assay are the reference plasmid pRL-CMV (from Promega) and the plasmid pBluescript SK(+) from Stratagene. All four plasmids were prepared using a plasmid preparation kit from Qiagen, which ensured a plasmid quality with a minimal endotoxin content, before transfection into HEK cells.
The activity of PPARgamma agonists is determined in a 4-day assay which is described below. Before the transfection, HEK cells are cultivated in DMEM medium (#41965-039, Invitrogen) which is mixed with the following additions: 10% FCS (#16000-044, Invitrogen), 1% penicillin-streptomycin solution (#15140-122, Invitrogen) and 2 mM L-glutamine (#25030-024, Invitrogen).
Firstly, solution A, a transfection mixture which contains all four plasmids previously described in addition to DMEM medium, is prepared. […]

Row | SMILES | EC50 (human PPARalpha) [nM] | EC50 (human PPARgamma) [nM]
1 | Cc1oc(-c2ccc(F)cc2)nc1COC1CCCC(COC(C)(C)C(=O)O)C1 (stereo not shown) [**] | 4.5 | > 10000
2 | CCCC(C)(OC[C@@H]1CCC[C@H](OCc2nc(-c3cccc(OC)c3)oc2CC)C1)C(=O)O (mixture of isomers) [Example 10, 2-{(1R,3S )-3-[5-Ethyl-2-(3-methoxyphenyl)oxazol-4-ylmethoxy]cyclohexylmethoxy}-2-methylpentanoic acid] | 54 | 130
3 | CCc1oc(-c2cccc(OC)c2)nc1CO[C@H]1CCC[C@@H](COC(C)(C)C(=O)O)C1 [Example 1, 2-{(1R,3S)-3-[5-ethyl-2-(3-methoxyphenyl)oxazol-4-ylmethoxy]cyclohexylmethoxy}-2-methylpropionic acid] | 45 | 930
4 | Cc1oc(-c2ccc3ccccc3c2)nc1CO[C@H]1CCC[C@@H](COC(C)(C)C(=O)O)C1 [Example 7, 2-Methyl-2-{(1R,3S)-3-[5-methyl-2-(naphth-2-yl)oxazol-4-ylmethoxy]cyclo-hexylmethoxy}propionic acid] | 1.2 | 2600

Now from value to compound:

Row | EC50 (human PPARalpha) [nM] | EC50 (human PPARgamma) [nM] | SMILES
5 | 12 | 75 | CCCC(C)(OC[C@@H]1CCC[C@H](OCc2nc(-c3ccc(CC(C)C)cc3)oc2CC)C1)C(=O)O (mixture of isomers) [Example 12, 2-{(1R,3S)-3-[5-Ethyl-2-(4-isobutylphenyl)oxazol-4-ylmethoxy]cyclohexylmethoxy}-2-methylpentanoic acid]
6 | 0.38 | 540 | CCc1oc(-c2ccc3ccccc3c2)nc1CO[C@H]1CCC[C@@H](COC(C)(Cc2ccccc2)C(=O)O)C1 (mixture of isomers) [Example 19, 2-{(1R,3S)-3-[5-Ethyl-2-(naphth-2-yl)oxazol-4-ylmethoxy]cyclohexylmethoxy}-2-methyl-3-phenylpropionic acid]
7 | 0.54 | 170 | CCc1oc(-c2ccc(C(C)C)cc2)nc1CO[C@H]1CCC[C@@H](COC(C)(Cc2ccccc2)C(=O)O)C1 (mixture of isomers) [Example 20, 2-{(1R,3S)-3-[5-Ethyl-2-(4-isopropylphenyl)oxazol-4-ylmethoxy]cyclohexylmethoxy}-2-methyl-3-phenylpropionic acid]
8 | 17 | 400 | CCc1oc(-c2cccc(OC)c2)nc1CO[C@H]1CCC[C@@H](COC(C)(Cc2ccccc2)C(=O)O)C1 (mixture of isomers) [Example 16, 2-{(1R,3S)-3-[5-Ethyl-2-(3-methoxyphenyl)oxazol-4-ylmethoxy]cyclohexylmethoxy}-2-methyl-3-phenylpropionic acid]

Source: patent US7956077B2, “2-{-3,′2-(phenyl)-oxazol-4-ylmethoxyl-cyclohexyl methoxy}-propionic acid derivatives used as peroxisome proliferator-activated receptor (PPAR) ligands for the treatment of hyperlipidemia and diabetes” (Sanofi-Aventis Deutschland GmbH, priority 2004, dated 2011)
